Patent publication USRE43343E1, “Inhibitors of histone deacetylase” (Methylgene Inc., priority 1999, dated 2012)

Key:
[1] = molecular target: T1, recombinant human HDAC-1 enzyme (rHDAC-1) (Homo sapiens, UniProt Q13547); assay: Histone deacetylase inhibition, recombinant human HDAC-1; type: biochemical; conditions: cloned recombinant human HDAC-1 from Baculovirus insect cell expression system
T1 construct: made in house; host or cells: Baculovirus insect cell expression system
Protocol: (§1) The reaction was stopped by adding acetic acid (0.04 M, final concentration) and HCl (250 mM, final concentration). The mixture was extracted with ethyl acetate and the released [^3H]-acetic acid was quantified by scintillation counting. For inhibition studies, the enzyme was preincubated with compounds at 4° C. for 30 minutes prior to initiation of the enzymatic assay. IC50 values for HDAC enzyme inhibitors were determined by performing dose response curves with individual compounds and determining the concentration of inhibitor producing fifty percent of the maximal inhibition.

[2] = tested on: histone deacetylase in nuclear extracts from H446 cells (pooled HDACs); assay: Histone deacetylase inhibition, H446 nuclear extracts (pooled HDACs); type: biochemical, human; conditions: for pooled HDACs percent inhibition at the specified concentration: @ 20 μM; for IC50: [3H]-acetylated histone substrate
Protocol: as §1

T1 sequence (Q13547 whole entry): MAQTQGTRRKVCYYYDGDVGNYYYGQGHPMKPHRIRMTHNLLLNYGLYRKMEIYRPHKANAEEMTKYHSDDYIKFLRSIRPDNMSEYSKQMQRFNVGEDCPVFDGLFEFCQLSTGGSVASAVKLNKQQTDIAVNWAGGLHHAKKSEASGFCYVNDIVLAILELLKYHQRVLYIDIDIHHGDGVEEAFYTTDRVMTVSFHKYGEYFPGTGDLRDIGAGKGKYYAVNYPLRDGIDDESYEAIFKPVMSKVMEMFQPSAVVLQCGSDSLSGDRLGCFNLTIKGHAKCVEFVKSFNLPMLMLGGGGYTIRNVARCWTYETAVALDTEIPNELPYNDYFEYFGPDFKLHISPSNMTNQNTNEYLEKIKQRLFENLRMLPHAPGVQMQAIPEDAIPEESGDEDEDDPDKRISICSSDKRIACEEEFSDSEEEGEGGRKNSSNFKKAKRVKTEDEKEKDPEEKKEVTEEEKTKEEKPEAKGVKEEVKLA

Row | SMILES | IC50 [1] | pooled HDACs percent inhibition at the specified concentration [2] | IC50 [2]
1 | COc1ccc(NS(=O)(=O)c2ccc(/C=C/C(=O)Nc3ccccc3N)cc2)cc1OC [Compound 118] | 2.3 µM | – | –
2 | COc1ccc(S(=O)(=O)Nc2ccc(CCC(=O)Nc3ccccc3N)cc2)cc1OC [Compound 121] | 23 µM | – | –
3 | COc1ccc(S(=O)(=O)Nc2ccc(/C=C/C(=O)Nc3ccccc3N)cc2)cc1 [Compound 122] | 2.3 µM | – | –
4 | O=C(C#Cc1ccc(NS(=O)(=O)c2ccc(-c3ccccc3)cc2)cc1)NO [Compound 128] | 0.3 µM | – | –
5 | O=C(/C=C/c1ccc(CC(O)c2ccccc2)o1)NO (stereo not drawn) [Compound 136] | 0.5 µM | – | –
6 | Nc1ccccc1NC(=O)/C=C/c1ccc(CC(=O)c2ccccc2)o1 [Compound 139] | – | 44% @ 20 μM | –
7 | Nc1ccccc1NC(=O)CCc1ccc(CC(=O)c2ccccc2)o1 [Compound 144] | 6.9 µM | 6% @ 20 μM | –
8 | O=C(/C=C/c1ccc(NC(=O)Nc2cccc3ccccc23)cc1)NO [Compound 146] | 0.91 µM | – | –
9 | COc1ccc(NC(=O)Nc2ccc(/C=C/C(=O)NO)cc2)cc1OC [Compound 147] | 0.48 µM | – | –
10 | O=C(NO)c1ccc(CCCC(O)c2ccc3ccccc3c2)cc1 (stereo not drawn) [Compound 149] | 0.1 µM | 8% @ 20 μM | –
11 | O=C(NO)c1ccc(/C=C/c2ccccc2)cc1 [Compound 151] | 2.3 µM | – | –
12 | O=C(NO)c1ccc(CCCCCc2ccccc2)cc1 [Compound 153] | 4.8 µM | – | –
13 | O=C(CCc1ccc(CCCCc2ccccc2)cc1)NO [Compound 154] | 0.9 µM | – | 2 µM
14 | O=C(CCCc1ccc(CCCc2ccccc2)cc1)NO [Compound 155] | – | 39% @ 20 μM | –
15 | O=C(CCCc1ccc(CCCCc2ccccc2)cc1)NO [Compound 156] | 0.75 µM | – | –
16 | O=C(CCc1ccc(CCc2ccccc2)cc1)NO [Compound 157] | 2.4 µM | – | –
17 | Cc1ccc(NS(=O)(=O)c2ccc(/C=C/C(=O)Nc3ccccc3N)cc2)cc1 [Compound 159] | 1.5 µM | – | –
18 | Nc1ccccc1NC(=O)/C=C/c1ccc(S(=O)(=O)Nc2ccc(-c3ccccc3)cc2)cc1 [Compound 160] | 1.2 µM | – | –
19 | Cc1ccc(NS(=O)(=O)c2ccc(/C=C/C(=O)NO)cc2)cc1 [Compound 161] | 0.05 µM | – | –
20 | COc1ccc(NS(=O)(=O)c2ccc(/C=C/C(=O)Nc3nnc(S)s3)cc2)cc1OC [Compound 164] | 5 µM | – | –
21 | O=C(/C=C/c1ccc(NS(=O)(=O)c2ccc(-c3ccccc3)cc2)cc1)Nc1nnc(S)s1 [Compound 165] | 2 µM | – | –
22 | Nc1ccccc1NC(=O)/C=C/C#Cc1cccc(NS(=O)(=O)c2ccccc2)c1 [Compound 168] | – | 0% @ 20 μM | –
23 | CN(C)c1ccc(CCc2ccccc2C(=O)NO)cc1 [Compound 173] | – | 35% @ 20 μM | –
24 | O=C(Cc1ccc(CCCc2ccccc2)cc1)NO [Compound 175] | – | – | > 20 µM
25 | O=C(CCC1CCC(CC(=O)c2ccccc2)O1)NO (stereo not drawn) [Compound 176] | – | 20% @ 20 μM | –
26 | O=C(CCCc1ccc(C(=O)NO)cc1)c1ccccc1 [Compound 177] | – | 10% @ 20 μM | –
27 | Nc1ccccc1NC(=O)c1ccc(CC(=O)c2ccccc2)o1 [Compound 178] | – | 2% @ 20 μM | –
